Experimental findings from ChEMBL document CHEMBL2203105, “Structure-related cytotoxic activity of derivatives from kulokekahilide-2, a cyclodepsipeptide in Hawaiian marine mollusk” (Bioorg Med Chem Lett, 2012) are described below.

Bounds are passed on as bounds.

One data set concerns MCF7. The data set can be described thus: Cytotoxicity against human MCF7 cells assessed as cell viability after 72 hrs by celltiter-blue assay. Particulars: MCF7, 72 h. It counts as functional, cell-based.
A further data set deals with K562. The data set can be described thus: Cytotoxicity against human K562 cells assessed as cell viability after 72 hrs by celltiter-blue assay. As to conditions: K562, 72 h. It is filed as functional, cell-based.
The test system of another data set is A549. The data set can be described thus: Cytotoxicity against human A549 cells assessed as cell viability after 72 hrs by celltiter-blue assay. As to conditions: A549, 72 h. It counts as functional, cell-based.
Data set [1] in a line: Chemical stability of the compound in DMSO by NMR analysis. It is filed as physicochemical.

What is called IC50 is the concentration needed to halve the response being measured. As for `C/C=C(\C)[C@H]1OC(=O)[C@@H](C)NC(=O)[C@H]([C@@H](C)CC)NC(=O)CN(C)C(=O)[C@@H](Cc2ccc(Cl)cc2)N(C)C(=O)[C@H](C)NC(=O)[C@@H](CC(C)C)OC(=O)/C(C)=C/C[C@H](O)[C@@H]1C`, the values for the IC50 in the data set on MCF7, in the data set on K562 and with A549 were 0.003 nM, 1.1e-05 nM and 1e-05 nM, respectively.
As to `C/C=C(\C)[C@H]1OC(=O)[C@@H](C)NC(=O)[C@H]([C@@H](C)CC)NC(=O)CN(C)C(=O)[C@@H](Cc2ccccc2)N(C)C(=O)[C@H](C)NC(=O)[C@@H](CC(C)C)OC(=O)/C(C)=C/C[C@H](OCSC)[C@@H]1C`, the figures for the IC50 in the data set on MCF7, in the data set on K562 and with A549 were 6.3 nM, 0.0063 nM and 0.00019 nM, respectively.
On the same counts, the results for `C/C=C(\C)[C@@H](OC(=O)[C@@H](C)N)[C@@H](C)C(C/C=C(\C)C(=O)O[C@H](CC(C)C)C(=O)N[C@@H](C)C(=O)N(C)[C@H](Cc1ccccc1)C(=O)N(C)CC(=O)N[C@H](C(=O)O)[C@@H](C)CC)OCSC` (single isomer, unassigned) are more than 10000 nM, more than 10000 nM and more than 10000 nM.
Turning to `C/C=C(\C)[C@@H](O)[C@@H](C)[C@@H]1C/C=C(\C)C(=O)O[C@H](CC(C)C)C(=O)N[C@@H](C)C(=O)N(C)[C@H](Cc2ccccc2)C(=O)N(C)CC(=O)N[C@@H]([C@@H](C)CC)C(=O)N[C@H](C)C(=O)O1`, the IC50 was 0.29 nM in the data set on MCF7, 0.012 nM with K562 and 0.0014 nM with A549. The Stability result in data set [1] was “Stable”.
In the case of `C/C=C(\C)[C@@H](O)[C@@H](C)[C@@H]1C/C=C(\C)C(=O)O[C@H](CC(C)C)C(=O)N[C@H](C)C(=O)N(C)[C@H](Cc2ccccc2)C(=O)N(C)CC(=O)N[C@@H]([C@@H](C)CC)C(=O)N[C@H](C)C(=O)O1`, the IC50 is 3690 nM with MCF7, 925 nM with K562 and 1080 nM in the data set with A549.
On to `C/C=C(\C)[C@@H](O)[C@@H](C)[C@@H]1C/C=C(\C)C(=O)O[C@H](CC(C)C)C(=O)N[C@@H](C)C(=O)N(C)[C@H](Cc2ccc(Cl)cc2)C(=O)N(C)CC(=O)N[C@@H]([C@@H](C)CC)C(=O)N[C@H](C)C(=O)O1`, for which the IC50 in the data set on MCF7 stood at 0.025 nM; with K562, 0.000216 nM; with A549, 2e-05 nM.
On to `C/C=C(\C)[C@H]1OC(=O)[C@@H](C)NC(=O)[C@H]([C@@H](C)CC)NC(=O)CN(C)C(=O)[C@@H](Cc2ccccc2)N(C)C(=O)[C@H](C)NC(=O)[C@@H](CC(C)C)OC(=O)/C(C)=C/C[C@H](O)[C@@H]1C`, for which the IC50 with MCF7 amounted to 0.22 nM; in the data set on K562, 0.0031 nM; in the data set on A549, 0.0021 nM. In data set [1], the Stability result is recorded as “Stable”.
With `C/C=C(\C)[C@H]1OC(=O)[C@@H](C)NC(=O)[C@H]([C@@H](C)CC)NC(=O)CN(C)C(=O)[C@@H](Cc2ccc(Cl)cc2)N(C)C(=O)[C@H](C)NC(=O)[C@@H](CC(C)C)OC(=O)/C(C)=C/C[C@H](OCSC)[C@@H]1C`, the IC50 in the data set on MCF7 was 6.5 nM; in the data set on K562 it was 7.1 nM; with A549, 0.73 nM.
Take `C/C=C(\C)[C@H]1OC(=O)[C@@H](C)NC(=O)[C@H]([C@@H](C)CC)NC(=O)CN(C)C(=O)[C@@H](Cc2ccccc2)N(C)C(=O)[C@@H](C)NC(=O)[C@@H](CC(C)C)OC(=O)/C(C)=C/C[C@H](OCSC)[C@@H]1C`: the IC50 was more than 10000 nM in the data set with MCF7, 1190 nM with K562 and 4340 nM in the data set with A549.
Consider `C/C=C(\C)[C@H]1OC(=O)[C@@H](C)NC(=O)[C@H]([C@@H](C)CC)NC(=O)CN(C)C(=O)[C@@H](Cc2ccccc2)N(C)C(=O)[C@@H](C)NC(=O)[C@@H](CC(C)C)OC(=O)/C(C)=C/C[C@H](O)[C@@H]1C`, for which the IC50 in the data set on MCF7 is 1640 nM; in the data set with K562, 584 nM; with A549, 1040 nM.
With `C/C=C(\C)[C@H]1OC(=O)[C@@H](C)NC(=O)[C@H]([C@@H](C)CC)NC(=O)CN(C)C(=O)[C@@H](Cc2ccccc2)N(C)C(=O)[C@H](C)NC(=O)[C@@H](CC(C)C)OC(=O)/C(C)=C/C[C@H](OC(=O)c2ccccc2)[C@@H]1C`, the IC50 in the data set on MCF7 came out at 2.9 nM; in the data set with K562, 1.8 nM; in the data set with A549, 0.00058 nM.
On the same counts, the results for `CC[C@H](C)[C@H](NC(=O)CN(C)C(=O)[C@@H](Cc1ccccc1)N(C)C(=O)[C@H](C)NC(=O)[C@H](O)CC(C)C)C(=O)O` are more than 10000 nM, more than 10000 nM and more than 10000 nM.
